Our source for the pIC50 values is patent publication US8163929B2, “Dihydropyridone amides as P2X7 modulators” (Roche Palo Alto LLC, priority 2008, dated 2012).

The target of the assay is T1, P2X7 (UniProt Q99572).
T1 sequence (Q99572 1-595): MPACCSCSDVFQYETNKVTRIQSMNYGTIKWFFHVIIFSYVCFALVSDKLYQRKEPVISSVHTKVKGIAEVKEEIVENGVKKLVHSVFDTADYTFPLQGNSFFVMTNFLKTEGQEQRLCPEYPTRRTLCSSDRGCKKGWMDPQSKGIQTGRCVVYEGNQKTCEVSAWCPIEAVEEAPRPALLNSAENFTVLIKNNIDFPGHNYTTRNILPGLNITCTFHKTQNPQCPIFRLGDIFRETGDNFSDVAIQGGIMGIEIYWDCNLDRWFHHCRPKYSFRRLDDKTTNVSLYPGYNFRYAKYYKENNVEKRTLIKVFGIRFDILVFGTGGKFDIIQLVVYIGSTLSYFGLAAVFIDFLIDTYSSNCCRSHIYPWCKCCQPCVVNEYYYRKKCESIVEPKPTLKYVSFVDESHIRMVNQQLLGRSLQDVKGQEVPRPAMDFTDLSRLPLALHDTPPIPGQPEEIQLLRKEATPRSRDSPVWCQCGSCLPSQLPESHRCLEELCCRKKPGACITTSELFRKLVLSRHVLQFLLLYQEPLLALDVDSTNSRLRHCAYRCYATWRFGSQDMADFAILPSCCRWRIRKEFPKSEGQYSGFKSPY
The assay can be described thus: P2X7 activity of Table 1. To be noted: pIC50 values for P2X7. The format is cell-based. How it is done:
Stock solutions of compounds were prepared from powders as a 10 mM DMSO stock solution. These solutions were stored at RT during the two week period of these experiments to prevent freeze-thaw of the DMSO stocks. The DMSO stocks were added to the appropriate assay buffer at a concentration of 10 μM, and then diluted serially to the final concentrations that were tested. […] The aqueous solutions of compounds as well as ATP (Sigma A7699) and BzATP (Sigma B6396) were prepared fresh for each day of experiment.
1321N1 cells stably expressing the full length human P2X7 gene (1321N1-hP2X7) and HEK293 cells stably expressing the full length rat P2X7 gene (HEK293-rP2X7) were obtained from the Roche Cell Culture Facility. 1321N1-hP2X7 cells were grown in Dulbecco's Modified Eagle's Medium (DMEM) high glucose supplemented with 10% FBS and 250 μg/mL G418. HEK293-rP2X7 cells were grown in DMEM/F-12 supplemented with 10% FBS, 1 mM CaCl2, 2 mM MgCl2, 2 mM L-Glutamine and 500 μg/ml G418. Cells were split such that they never became >70% confluent.
On the day prior to the experiment, 1321N1-hP2X7 or HEK293-rP2X7 cells were released into suspension with calcium-free PBS+Versene and washed by centrifugation with calcium-free PBS to remove the Versene. Cells were resuspended in growth medium at a density of 2.5×10^5 cells/mL and seeded into black walled, clear bottom 96 well plates (50,000 cells/well) approximately 18 hr prior to intracellular calcium flux experiments.
On the day of the experiment, plates were washed with FLIPR buffer (calcium- and magnesium-free Hank's Balanced Salt Solution (HBSS) supplemented with 10 mM Hepes, 2.5 mM probenecid and 2 mM calcium chloride) using a BIO-TEK 96 channel plate washer and incubated with […] fluo-3 dye at 37° C. for one hr. The dye was then removed by plate washing and the cells were allowed to equilibrate for 20 min at room temperature with antagonist or vehicle (FLIPR buffer). Agonist (100 μM BzATP final concentration for hP2X7; 5 μM BzATP final concentration or rP2X7) was added online with the FLIPR and fluorescence measurements made at 1 sec intervals for 60 sec followed by 3 sec intervals for a further 4 min (5 min total). A final addition of 5 μM ionomycin was made and the maximal BzATP-evoked fluorescence normalized to the maximal ionomycin-evoked fluorescence.

For `Cc1cc(-c2ccc(C)c(NC(=O)C3=CNC(=O)C[C@H]3c3ccc(F)cc3)c2)n(C)n1` [Compound 21, (S)-4-(4-Fluoro-phenyl)-6-oxo-1,4,5,6-tetrahydro-pyridine-3-carboxylic acid [5-(2,5-dimethyl-2H-pyrazol-3-yl)-2-methyl-phenyl]-amide], the pIC50 is 6.525.
`Cc1cc(-c2ccc(C)c(NC(=O)C3=CNC(=O)C[C@H]3c3cccc(F)c3)c2)n[nH]1` [Compound 22, (S)-4-(3-Fluoro-phenyl)-6-oxo-1,4,5,6-tetrahydro-pyridine-3-carboxylic acid [2-methyl-5-(5-methyl-1H-pyrazol-3-yl)-phenyl]-amide] returned a negative-log IC50 (pIC50) of 7.75.
For `Cc1cc(-c2ccc(C)c(NC(=O)C3=CNC(=O)C[C@H]3c3ccc(F)cc3)c2)on1` [Compound 26, (S)-4-(4-Fluoro-phenyl)-6-oxo-1,4,5,6-tetrahydro-pyridine-3-carboxylic acid [2-methyl-5-(3-methyl-isoxazol-5-yl)-phenyl]-amide] the value was 7.265; for `Cc1ncn(-c2ccc(C)c(NC(=O)C3=CNC(=O)C[C@H]3c3ccc(F)cc3)c2)n1` [Compound 27, (S)-4-(4-Fluoro-phenyl)-6-oxo-1,4,5,6-tetrahydro-pyridine-3-carboxylic acid [2-methyl-5-(3-methyl-[1,2,4]triazol-1-yl)-phenyl]-amide], 6.28; for `Cc1cn(-c2ccc(C)c(NC(=O)C3=CNC(=O)C[C@H]3c3ccc(F)cc3)c2)nn1` [Compound 28, (S)-4-(4-Fluoro-phenyl)-6-oxo-1,4,5,6-tetrahydro-pyridine-3-carboxylic acid [2-methyl-5-(4-methyl-[1,2,3]triazol-1-yl)-phenyl]-amide], 7.145.
`Cc1cnn(-c2ccc(C)c(NC(=O)C3=CNC(=O)C[C@H]3c3ccc(F)cc3)c2)c1` [Compound 29, (S)-4-(4-Fluoro-phenyl)-6-oxo-1,4,5,6-tetrahydro-pyridine-3-carboxylic acid [2-methyl-5-(4-methyl-pyrazol-1-yl)-phenyl]-amide]: the pIC50 is reported as 7.99.
Take `Cc1nnc(-c2ccc(C)c(NC(=O)C3=CNC(=O)C[C@H]3c3ccc(F)cc3)c2)o1` [Compound 30, (S)-4-(4-Fluoro-phenyl)-6-oxo-1,4,5,6-tetrahydro-pyridine-3-carboxylic acid [2-methyl-5-(5-methyl-[1,3,4]oxadiazol-2-yl)-phenyl]-amide]: the negative logarithm of the IC50 (pIC50) is on record as 6.275.
`Cc1cc(-c2ccc(C)c(NC(=O)C3=CN(C)C(=O)C[C@H]3c3ccc(F)cc3)c2)n[nH]1` [Compound 31, (S)-4-(4-Fluoro-phenyl)-1-methyl-6-oxo-1,4,5,6-tetrahydro-pyridine-3-carboxylic acid [2-methyl-5-(5-methyl-1H-pyrazol-3-yl)-phenyl]-amide] came in with a pIC50 of 7.35.
In the case of `CCCn1nccc1-c1ccc(C)c(NC(=O)C2=CNC(=O)C[C@H]2c2ccc(F)cc2)c1` [Compound 32, (S)-4-(4-Fluoro-phenyl)-6-oxo-1,4,5,6-tetrahydro-pyridine-3-carboxylic acid [2-methyl-5-(2-propyl-2H-pyrazol-3-yl)-phenyl]-amide] it was 6.885; in that of `Cc1cc(-c2ccc(Cl)c(NC(=O)C3=CNC(=O)C[C@H]3c3ccc(F)cc3)c2)n[nH]1` [Compound 33, (S)-4-(4-Fluoro-phenyl)-6-oxo-1,4,5,6-tetrahydro-pyridine-3-carboxylic acid [2-chloro-5-(5-methyl-1H-pyrazol-3-yl)-phenyl]-amide], 7.4067.
For `Cc1ccc(-c2nnc(C)n2C)cc1NC(=O)C1=CNC(=O)C[C@H]1c1ccc(F)cc1` [Compound 34, (S)-4-(4-Fluoro-phenyl)-6-oxo-1,4,5,6-tetrahydro-pyridine-3-carboxylic acid [5-(4,5-dimethyl-4H-[1,2,4]triazol-3-yl)-2-methyl-phenyl]-amide] the value was 7.78.
Molecule `Cc1cc(Cl)c(CN2CCOC2=O)cc1NC(=O)C1=CNC(=O)C[C@H]1c1ccc(F)cc1` [Compound 35, (S)-4-(4-Fluoro-phenyl)-6-oxo-1,4,5,6-tetrahydro-pyridine-3-carboxylic acid [4-chloro-2-methyl-5-(2-oxo-oxazolidin-3-ylmethyl)-phenyl]-amide] returned a pIC50 of 8.135.
For `Cc1cc(-c2cc(NC(=O)C3=CNC(=O)C[C@H]3c3ccc(F)cc3)ccc2Cl)n[nH]1` [Compound 36, (S)-4-(4-Fluoro-phenyl)-6-oxo-1,4,5,6-tetrahydro-pyridine-3-carboxylic acid [4-chloro-3-(5-methyl-1H-pyrazol-3-yl)-phenyl]-amide] the value was 5.92; for `Cc1ccc(-n2ncc(=O)n(C)c2=O)cc1NC(=O)C1=CNC(=O)C[C@H]1c1ccc(F)cc1` [Compound 37, (S)-4-(4-Fluoro-phenyl)-6-oxo-1,4,5,6-tetrahydro-pyridine-3-carboxylic acid [2-methyl-5-(4-methyl-3,5-dioxo-4,5-dihydro-3H-[1,2,4]triazin-2-yl)-phenyl]-amide], 7.76; for `Cc1ccc(-c2cc(C)n(CCO)n2)cc1NC(=O)C1=CN(C)C(=O)C[C@H]1c1ccc(F)cc1` [Compound 38, (S)-4-(4-Fluoro-phenyl)-1-methyl-6-oxo-1,4,5,6-tetrahydro-pyridine-3-carboxylic acid {5-[1-(2-hydroxy-ethyl)-5-methyl-1H-pyrazol-3-yl]-2-methyl-phenyl}-amide], 7.46.
As for `Cc1ccc(-n2ncc(=O)n(CCO)c2=O)cc1NC(=O)C1=CNC(=O)C[C@H]1c1ccc(F)cc1` [Compound 39, (S)-4-(4-Fluoro-phenyl)-6-oxo-1,4,5,6-tetrahydro-pyridine-3-carboxylic acid {5-[4-(2-hydroxy-ethyl)-3,5-dioxo-4,5-dihydro-3H-[1,2,4]triazin-2-yl]-2-methyl-phenyl}-amide], the pIC50 was found to be 7.76.
On to `Cc1cc(-c2ccc(C)c(NC(=O)C3=CNC(=O)C[C@H]3c3ccc(F)cc3)c2)no1` [Compound 40, (S)-4-(4-Fluoro-phenyl)-6-oxo-1,4,5,6-tetrahydro-pyridine-3-carboxylic acid [2-methyl-5-(5-methyl-isoxazol-3-yl)-phenyl]-amide], for which the pIC50 was determined as 7.183.
For `Cc1cc(-c2cc(NC(=O)C3=CNC(=O)C[C@H]3c3ccc(F)cc3)c(C)cc2F)n[nH]1` [Compound 41, (S)-4-(4-Fluoro-phenyl)-6-oxo-1,4,5,6-tetrahydro-pyridine-3-carboxylic acid [4-fluoro-2-methyl-5-(5-methyl-1H-pyrazol-3-yl)-phenyl]-amide] the value was 8.048.
In the case of `COCCn1nc(-c2ccc(C)c(NC(=O)C3=CNC(=O)C[C@H]3c3ccc(F)cc3)c2)cc1C` [Compound 42, (S)-4-(4-Fluoro-phenyl)-6-oxo-1,4,5,6-tetrahydro-pyridine-3-carboxylic acid {5-[1-(2-methoxy-ethyl)-5-methyl-1H-pyrazol-3-yl]-2-methyl-phenyl}-amide] it was 7.3; in that of `Cc1ccc(-c2cnccn2)cc1NC(=O)C1=CNC(=O)C[C@H]1c1ccc(F)cc1` [Compound 43, (S)-4-(4-Fluoro-phenyl)-6-oxo-1,4,5,6-tetrahydro-pyridine-3-carboyxlic acid (2-methyl-5-pyrazin-2-yl-phenyl)-amide], 7.54; in that of `Cc1ccc(-c2ccc(C)c(NC(=O)C3=CNC(=O)C[C@H]3c3ccc(F)cc3)c2)nn1` [Compound 44, (S)-4-(4-Fluoro-phenyl)-6-oxo-1,4,5,6-tetrahydro-pyridine-3-carboxylic acid [2-methyl-5-(6-methyl-pyridazin-3-yl)-phenyl]-amide], 7.567.

What is called pIC50 is the negative decadic logarithm of the IC50, by convention in mol/L.
